Two compounds from patent US10975029B2, “Crystalline eravacycline bis-hydrochloride” (Sandoz AG, priority 2016, dated 2021) can be followed below.

Where a name gives a salt, the structure may show the parent alone.

Common to all, as to format: physicochemical
Data set [1] is described as follows: Comparative Example 2: chemical stability under accelerated stress conditions, HPLC at 254 nm. To be noted: dihydrochloride; for Area % (HPLC, 254 nm) after 40° C./75% RH for 19 days / Area % (HPLC, 254 nm) after 40° C./75% RH for 42 days: open stored in glass vials; for Area % (HPLC, 254 nm), initial sample: before stress. An excerpt: [formula] mT=initial mass of eravacycline bis-hydrochloride tested in mg VT=consumption of volumetric solution for titration of eravacycline bis-hydrochloride in mL F=factor of the volumetric solution 36.46=molecular mass of hydrochloride in g/mol 0.1=molarity of the volumetric solution 100=conversion to % High Performance Liquid Chromatography Instrument: Agilent HP 1100 with Chemstation Column: YMC-Pack Pro C18 RS; 150*4.6 mm; 3 microm Solvent: A: 40 mmol amidosulfonic acid in water • B: 40 mmol amidosulfonic acid in water with 75% acetonitrile Gradient: […]
Injection volume: 5 microL Flow: 0.8 mL/min Oven temperature: 40° C. Wavelength: 254 nm
Crystalline eravacycline bis-hydrochloride of the present invention and amorphous eravacycline bis-hydrochloride were subjected to accelerated stress conditions of 40° C. and 75% relative humidity. The samples were open stored in glass vials and analyzed by high performance liquid chromatography at 254 nm using the method as described in the experimental section above.

The nature of data set [2]: Comparative Example 1: gravimetric moisture sorption/desorption experiment, 0 to 80% RH. Particulars: 25° C.; for hysteresis between the sorption and the desorption curve: 0 to 80% RH; for hysteresis between the sorption and the desorption curve / mass increase during the sorption cycle from 0 to 80% RH: dihydrochloride; for mass increase during the sorption cycle from 0 to 80% RH: sorption cycle 0 to 80% RH, reference weight at 0% RH. An excerpt: Crystalline eravacycline bis-hydrochloride of the present invention and amorphous eravacycline bis-hydrochloride were both subjected to a gravimetric moisture sorption/desorption experiment using an SPSx-1μ moisture sorption analyzer (ProUmid, Ulm). The measurement cycles were started at ambient relative humidity (RH) of 20% and the RH was first decreased in 5% steps to 5% RH, in one step to 3% RH in a further step to 0% RH. Then RH was increased from 0% to 80% and decreased from 80 to 0% RH in 5% steps. Finally, the relative humidity was increased to ambient relative humidity of 20% in 3 steps of approximately 7% steps. The time per step was set to a minimum of 2 hours and a maximum of 6 hours. If an equilibrium condition with a constant mass of 0.01% within 1 hour was reached before the maximum time for all examined samples the sequential humidity step was applied before the maximum time of 6 hours. If no equilibrium was achieved the consecutive humidity step was applied after the maximum time of 6 hours. The temperature was (25±0.1)° C.

The nature of data set [3]: Gravimetric moisture sorption isotherm, 0% to 95% RH, with pictures to detect visual changes (deliquescence). To be noted: for relative humidity at which the solid liquefies (deliquescence): measured at 25.0±0.1° C., dihydrochloride. The method, then:
Moisture sorption isotherms were recorded with an SPSx-1μ moisture sorption analyzer (proUmid, Ulm). The measurement cycle was started at ambient relative humidity (RH) of 25% and first decreased in 5% steps to 5% RH, in one step to 3% RH in a further step to 0% RH. Then RH was increased from 0% to 95% in 5% steps. The time per step was set to a minimum of 2 hours and a maximum of 6 hours. If an equilibrium condition with a constant mass of +0.01% within 1 hour was reached before the maximum time for all examined samples, the sequential humidity step was applied before the maximum time of 6 hours. If no equilibrium was achieved, the consecutive humidity step was applied after the maximum time of 6 hours. The temperature was 25±0.1° C. At the beginning of the GMS experiment, as well as at the end of each RH-step a picture was taken of each sample in order to detect visual changes in the samples. Pictures were taken with a 2046×2046 pixel CMOS image sensor attached to a 35 mm/F 1.4 lens, which was directly connected to the cover plate of moisture sorption analyzer.

Where [4] appears, read: listed as crystalline eravacycline 2HCl.
[5] abbreviates: listed as amorphous eravacycline 2HCl.

Turning to `CN(C)[C@@H]1C(O)=C(C(N)=O)C(=O)[C@@]2(O)C(O)=C3C(=O)c4c(O)c(NC(=O)CN5CCCC5)cc(F)c4C[C@H]3C[C@@H]12` [crystalline eravacycline bis-hydrochloride] [(4S,4aS,5aR,12aS)-4-(Dimethylamino)-7-fluoro-3,10,12,12a-tetrahydroxy-1,11-dioxo-9-[2(-pyrrolidin-1-yl)acetamido]-1,4,4a,5,5a,6,11,12a-octahydrotetracene-2-carboxamide dihydrochloride], in data set [1] (setting [4]), the “Area % (HPLC, 254 nm) after 40° C./75% RH for 19 days” value was 77.1 Area %; the “Area % (HPLC, 254 nm) after 40° C./75% RH for 42 days” value is 73.8 Area %; the “Area % (HPLC, 254 nm), initial sample” value stood at 95.8 Area %. Further, in data set [2], the “hysteresis between the sorption and the desorption curve” value is recorded as “no significant hysteresis”. Also, the “water content during the sorption and the desorption cycle at 40% relative humidity” value in data set [2] (40% RH, sorption and desorption cycle, FIG. 6) is “about 13 weight %”. Also, the “water content at a relative humidity of 0%” value in data set [3] (0% RH, gravimetric moisture sorption, 25° C.) was “about 0 weight %”. Moreover, the “water content at a relative humidity of 90%” value in data set [3] (90% RH, gravimetric moisture sorption, 25° C.) is “about 20.1%”. The “relative humidity at which the solid liquefies (deliquescence)” value in data set [3] was found to be 95%. Further, in data set [3] (relative humidity about 0 to 90% at 25.0±0.1° C.), the “behaviour when subjected to relative humidity of about 0 to 90%” value is on record as “does not liquefy”.

`CN(C)[C@@H]1C(O)=C(C(N)=O)C(=O)[C@@]2(O)C(O)=C3C(=O)c4c(O)c(NC(=O)CN5CCCC5)cc(F)c4C[C@H]3C[C@@H]12` [amorphous eravacycline bis-hydrochloride, (4S,4aS,5aR,12aS)-4-(Dimethylamino)-7-fluoro-3,10,12,12a-tetrahydroxy-1,11-dioxo-9-[2(-pyrrolidin-1-yl)acetamido]-1,4,4a,5,5a,6,11,12a-octahydrotetracene-2-carboxamide dihydrochloride]: in data set [1] (setting [5]), the “Area % (HPLC, 254 nm) after 40° C./75% RH for 19 days” value was found to be 31.9 Area %; the “Area % (HPLC, 254 nm) after 40° C./75% RH for 42 days” value worked out at 30.3 Area %; the “Area % (HPLC, 254 nm), initial sample” value stood at 97.2 Area %. For the same compound, in data set [2], the “hysteresis between the sorption and the desorption curve” value is given as “significant hysteresis”; the “mass increase during the sorption cycle from 0 to 80% RH” value is given as “about 26.1 weight %”. In addition, in data set [2] (40% RH, desorption curve, FIG. 7), the “water content in the desorption curve at 40% relative humidity” value amounted to 14.3%. The “water content in the sorption curve at 40% relative humidity” value in data set [2] (40% RH, sorption curve, FIG. 7) is reported as “about 8.9 weight %”. Besides, in data set [2] (listed as Amorphous eravacycline bis-hydrochloride), the “mass increase during the sorption cycle from 0 to 80% RH” value is on record as “about 26.1 weight %”. The “relative humidity at which the solid liquefies (deliquescence)” value in data set [3] is 85%.
